These results are taken from US5635519A, “Benzothiazole compounds which are substituted by pyridymethyl” (Eisai Co., Ltd., priority 1991, dated 1997).

Data set [1] has as its system LTB4. Kind of data set: Suppressing production of leukotriene B4 (LTB4) from rat peritoneal exudation cells. The class given is cell-based. The following applies: A23187 2 μg/ml, read-out: Production suppressing function IC50, LTB4. How it is done:
(§1) After 20 to 24 hours, peritoneal exudation cells were collected from the rats, washed and suspended in the Hank's buffer salt solution (HESS) at a concentration of 5×10^6 /ml. Then 100 μl/well of the obtained cell suspension was […] into a 96-well culture plate (Costar^R) containing 10 μl/well of a sample drug diluted to a given concentration. The plate was incubated at 37° C. for 5 minutes and A23187 (CALBIOCHEM®) was added thereto so as to give a final concentration of 2 μg/ml. After incubating at 37° C. for additional 10 minutes, the plate was transferred on ice and a B[…] solution was added thereto so as to give a final concentration of 100 μM. This plate was centrifuged at 15,000 rpm for 10 minutes and the supernatant was collected. Then the LTB4, TxB2 and PGE2 present in the supernatant were determined by enzyme immunoassay with the use of an EIA Kit manufactured by CAYMAN.

Data set [2] deals with LTB4. The data set is described as follows: Suppressing production and liberation of LTB4 from TNB-colitis rat colon. It counts as in vivo. The note with it: 100 mg/kg oral, 6 hours, A23187 5 μg/ml. How it is done:
(§2) Functions of suppressing production and liberation of LTB4 and TxB2 from TNB (trinitrobenzenesulfonic acid)-colitis rat colon Rat TNB-colitis was induced in accordance with the method reported by Morris et al. [Gastroenterology, 96, 795-803 (1989)]. Namely, each of male F344 rats aged 9 weeks was fasted for 2 days and then etherized. A sound (1.2×80 mm, manufactured by Fuehigami Kikai-ten) was inserted into the rectum of the animal to inject 0.25 ml of a 120 mg/ml solution of TNB (a product of Tokyo Kasei K. K.) in 50% ethanol into the colon cavity. The effects of each compound on the production and liberation of LTB4 and TxB2 from the colon of the TNB-colitis rat were evaluated by using the rat 7 days after the injection of TNB. Namely, each compound (5% suspension in methylcellulose) was orally administered to the rat in a dose of 0.5 ml/100 g body weight. After 6 hours, the animal was deeply deeply etherlzed and subjected to autopsy. Thus the colon tissue was extirpated. The colon was incubated in Tyrode's solution (CALBIOCHEM containing 5 μg/ml of A23187-calcium ionophore) at 37° C. for 20 minutes in accordance with the method of […] et al. [Biochim. Biophys. Acta, 878, 184-193 (1986)]. Then LTB4, TxB2 and PGE2 thus produced and liberated into the medium were determined by radioimmunoassay (RXA).

Data set [3] deals with TxB2. Kind of data set: Suppressing production of thromboxane B2 (TxB2) from rat peritoneal exudation cells. It counts as cell-based. The following applies: A23187 2 μg/ml, read-out: Production suppressing function IC50, TxB2. How it is done: as §1
In data set [4] the test system is PGE2. The data set is described as follows: Suppressing production and liberation of PGE2 from TNB-colitis rat colon. The class given is in vivo. The following applies: 100 mg/kg oral, 6 hours, A23187 5 μg/ml. How it is done: as §2
Data set [5] concerns PGE2. The data set is described as follows: Effect on production of prostaglandin E2 (PGE2) from rat peritoneal exudation cells. The following applies: A23187 2 μg/ml. The class given is cell-based. Here is the method:
as §1

Another data set concerns TNB-colitis. Kind of data set: Therapeutic effects on TNB-colitis (MPO in colon). It counts as in vivo, rat. The note with it: once a day for 11 days. How it is done:
Therapeutic effects on TNB-colitis
Rat TNB-colitis was induced in accordance with the method reported by Morris et al. [Gastroenterology, 96, 795-808 (1989)]. Namely, each of male F344 rats aged 9 weeks was fasted for 2 days and then etherized. A sound (1.2×80 mm, manufactured by Fuchigami Kikai-ten) was inserted into the rectum of the animal to inject 0.25 ml of a 120 mg/ml solution of TNB (a product of Tokyo Kasei K. K.) in 50% ethanol into the colon cavity. 3 days after the injection of TNB, each compound (5% suspension in methylcellulose) was orally administered once a day for 11 days. 14 days after the injection of TNB, the animal was subjected to autopsy and the colon was extirpated. The extent of damage to the colon was evaluated by determining MPO (myeloperoxidase) present therein.
The therapeutic ratio was calculated according to the following equation:
therapeutic ratio=(5% methylcellulose group-ethanol group)-(invention
compound group-ethanol group).

Data set [6] deals with TxB2. The data set is described as follows: Suppressing production and liberation of TxB2 from TNB-colitis rat colon. The class given is in vivo. The note with it: 100 mg/kg oral, 6 hours, A23187 5 μg/ml. Here is the method: as §2
The test system of a further data set is rats. Kind of data set: Toxicity test, 28 days repeated administration. The class given is in vivo, rat. The note with it: 200 mg/kg once a day for 28 days.

“Also recorded” adds a separate entry of the source. Structures can show the parent of a compound that is named as a salt.

Regarding `CCNc1nc2c(C)c(C)c(O)c(Cc3cccnc3)c2s1` [Example 17, 2-Ethylamino-6-hydroxy-4,5-dimethyl-7-(3-Pyridylmethyl)benzothiazole], the IC50 (as a rule, the point on the concentration scale where inhibition reaches its midpoint) was less than 100 nM in the data set on LTB4 [1] and 2000 nM in the data set with TxB2 [3]. In the data set on LTB4 [2], the “Suppression ratio (%), LTB4” value amounted to 89%. Moreover, in the data set with PGE2 [4], the “Suppression ratio (%), PGE2” value is given as 41%. For the same compound, the “Production suppressing function, PGE2 (in words)” value (from here on “Production suppressing function”) with PGE2 [5] was “enhanced at 1 μM; also recorded: suppressed at 100 μM”. Moreover, the “Therapeutic ratio (%)” value in the data set with TNB-colitis (100 mg/kg/day oral) is on record as 40%. In the data set with TxB2 [6], the “Suppression ratio (%), TxB2” value is 53%.
Take `CCNc1nc2c(C)c(Cc3cccnc3)c(O)c(C)c2s1` [Example 14, 2-Ethylamino-6-hydroxy-4,7-dimethyl-5-(3-pyridylmethyl)benzothiazole]: the figures for the IC50 in the data set with LTB4 [1] and in the data set on TxB2 [3] were 230 nM and 650 nM, respectively. Also, in the data set on LTB4 [2], the “Suppression ratio (%), LTB4” value is 83%. For the same compound, the “Suppression ratio (%), PGE2” value in the data set with PGE2 [4] was 8%. For the same compound, in the data set with PGE2 [5], the “Production suppressing function” value is “enhanced at 0.1-1 μM; also recorded: suppressed at 100 μM”. Besides, the “Therapeutic ratio (%)” value in the data set with TNB-colitis (100 mg/kg/day oral) came out at 32%. Also, the “Suppression ratio (%), TxB2” value with TxB2 [6] was found to be 67%.
In the case of `COc1cc2nc(NCc3cccnc3)sc2c(OC)c1O` [Example 1, 6-Hydroxy-5,7-dimethoxy-2-(3-pyridylmethyl)aminobenzothiazole], the concentration for half-maximal inhibition (IC50) with LTB4 [1] worked out at 90 nM; in the data set with TxB2 [3], 5460 nM. Moreover, the “Suppression ratio (%), LTB4” value with LTB4 [2] was found to be 19%. Moreover, the “Suppression ratio (%), PGE2” value with PGE2 [4] came out at 10%. Also, the “Production suppressing function” value in the data set on PGE2 [5] is listed as “enhanced at 1-10 μM; also recorded: suppressed at 100 μM”. In addition, the “Suppression ratio (%), TxB2” value in the data set on TxB2 [6] turned out to be 55%.
Consider `Cc1c(O)c(Cc2cccnc2)c2sc(N)nc2c1C.Cl.Cl` [Example 15, 2-Amino-6-hydroxy-4,5-dimethyl-7-(3-pyridylmethyl)benzothiazole dihydrochloride], for which the IC50 is 250 nM in the data set on LTB4 [1] and 5310 nM in the data set on TxB2 [3]. Also, the “Production suppressing function” value in the data set on PGE2 [5] is listed as “enhanced at 0.1-100 μM”.
As for `CCCNc1nc2c(Cc3cccnc3)c(C)c(O)c(C)c2s1.Cl.Cl` [Example 12, 6-Hydroxy-5,7-dimethyl-2-propylamino-4-(3-pyridylmethyl)benzothiazole dihydrochloride], the 50% inhibitory concentration (IC50) in the data set with LTB4 [1] was less than 100 nM; with TxB2 [3], 90 nM. In addition, the “Production suppressing function” value in the data set with PGE2 [5] (dihydrochloride) is reported as “enhanced at 0.1-10 μM; also recorded: suppressed at 100 μM”.
Take `CNc1nc2c(Cc3cccnc3)c(C)c(O)c(C)c2s1` [Example 10, 6-Hydroxy-5,7-dimethyl-2-methylamino-4-(3-pyridylmethyl)benzothiazole]: in the data set with rats, the “abnormality caused by the administration” value is listed as “no abnormality caused by the administration of the drug was observed”. Also, the “Production suppressing function” value with PGE2 [5] is given as “enhanced at 0.1-10 μM”.
Consider `Cc1c(O)c(C)c2sc(NCc3cccnc3)nc2c1C` [Example 4, 6-Hydroxy-4,5,7-trimethyl-2-(3-pyridylmethyl)aminobenzothiazole], for which the 50% inhibitory concentration (IC50) with LTB4 [1] was less than 100 nM; in the data set with TxB2 [3] it was 1950 nM. The “Suppression ratio (%), LTB4” value with LTB4 [2] is recorded as 93%. Also, in the data set on PGE2 [4], the “Suppression ratio (%), PGE2” value is on record as 30%. In addition, in the data set on PGE2 [5], the “Production suppressing function” value is on record as “enhanced at 0.1-1 μM; also recorded: suppressed at 10 μM or above”. The “Therapeutic ratio (%)” value in the data set with TNB-colitis (100 mg/kg/day oral) was found to be 31%. Further, in the data set with TxB2 [6], the “Suppression ratio (%), TxB2” value turned out to be 72%.
For `Cc1c(O)c(C)c2sc(N)nc2c1Cc1cccnc1` [Example 18, 2-Amino-6-hydroxy-5,7-dimethyl-4-(3-pyridylmethyl)benzothiazole dihydrochloride], the IC50 came out at 190 nM with LTB4 [1] and 2 nM with TxB2 [3].
With `CCc1c(O)c(OC)c(Cc2cccnc2)c2nc(N)sc12` [Example 22, 2-Amino-7-ethyl-6-hydroxy-5-methoxy-4-(3-pyridylmethyl)benzothiazole dihydrochloride], the IC50 in the data set on LTB4 [1] amounted to 150 nM; with TxB2 [3], 180 nM.
As for `COc1c(O)c(C)c2sc(N)nc2c1Cc1cccnc1` [Example 20, 2-Amino-6-hydroxy-5-methoxy-7-methyl-4-(3-pyridylmethyl)benzothiazole dihydrochlorlde], the IC50 is 170 nM in the data set on LTB4 [1] and 110 nM in the data set with TxB2 [3]. Also, the “Production suppressing function” value with PGE2 [5] is on record as “enhanced at 0.1-100 μM”.
Regarding `CNc1nc2c(C(OC(C)=O)c3cccnc3)c(C)c(O)c(C)c2s1` (centres unmarked) [Example 9, {4-(6-Hydroxy-5,7-dimethyl-2-methylamino)benzothiazoyl}-(3-pyridyl)methyl acetate], the IC50 with LTB4 [1] turned out to be 380 nM; with TxB2 [3], 730 nM. Moreover, the “Production suppressing function” value in the data set on PGE2 [5] is “enhanced at 0.1-100 μM”.
As to `CNc1nc2c(Cc3cccnc3)c(OC)c(O)c(C)c2s1` [Example 21, 6-Hydroxy-5-methoxy-7-methyl-2-methylamino-4-(3-pyridylmethyl)benzothiazoledihydrochloride], the IC50 in the data set with LTB4 [1] is 170 nM; in the data set with TxB2 [3] it was 1280 nM.
Turning to `Cc1cc(O)c(C)c2sc(NCc3cccnc3)nc12` [Example 5, 6-Hydroxy-4,7-dimethyl-2-(3-pyridylmethyl)aminobenzothiazole], the 50% inhibitory concentration (IC50) in the data set on LTB4 [1] was less than 100 nM; in the data set on TxB2 [3] it was 4390 nM. The “Suppression ratio (%), LTB4” value with LTB4 [2] was determined as 94%. In addition, in the data set with PGE2 [4], the “Suppression ratio (%), PGE2” value is reported as 30%. The “Production suppressing function” value with PGE2 [5] is “enhanced at 0.1-10 μM; also recorded: suppressed at 100 μM”. In addition, the “Therapeutic ratio (%)” value with TNB-colitis (100 mg/kg/day oral) is 53%. Further, in the data set with TxB2 [6], the “Suppression ratio (%), TxB2” value is 36%.
Turning to `CCc1c(O)c(OC)c(Cc2cccnc2)c2nc(NC)sc12.Cl.Cl` [Example 23, 7-Ethyl-6-hydroxy-5-methoxy-2-methylamino-4-(3-pyridylmethyl)benzothiazole dihydrochloride], the IC50 is less than 100 nM with LTB4 [1] and 330 nM in the data set with TxB2 [3]. The “Production suppressing function” value with PGE2 [5] (dihydrochloride) is “enhanced at 0.1-10 μM; also recorded: suppressed at 100 μM”.
As for `CCNc1nc2c(Cc3cccnc3)c(C)c(O)c(C)c2s1.Cl.Cl` [Example 11, 2-Ethylamino-6-hydroxy-5,7-dimethyl-4-(3-pyridylmethyl)benzothiazole dihydrochloride], the IC50 is less than 100 nM with LTB4 [1] and 100 nM in the data set on TxB2 [3]. Moreover, the “Suppression ratio (%), LTB4” value in the data set with LTB4 [2] amounted to 94%. Further, the “Suppression ratio (%), PGE2” value with PGE2 [4] is listed as 0%. Also, in the data set on PGE2 [5] (dihydrochloride), the “Production suppressing function” value is listed as “enhanced at 0.1-10 μM; also recorded: suppressed at 100 μM”. Besides, in the data set with TNB-colitis (100 mg/kg/day oral), the “Therapeutic ratio (%)” value was 41%. Moreover, the “Suppression ratio (%), TxB2” value with TxB2 [6] is given as 85%.
As to `C[C@]12C=CC(=O)C=C1CC[C@@H]1[C@@H]2[C@@H](O)C[C@@]2(C)[C@H]1CC[C@]2(O)C(=O)CO` [prednisolone, reference compound], the “Therapeutic ratio (%)” value in the data set on TNB-colitis (10 mg/kg/day oral) is reported as 60%.
